Laboratory results from US12318401B2, “Injectable shear-thinning hydrogel containing therapeutic agent for enhanced tumor therapy” (MAYO FOUNDATION FOR MEDICAL EDUCATION AND RESEARCH, priority 2021, dated 2025).

System: B16F10 melanoma tumor cells
Assay: In vivo anti-cancer efficacy in melanoma tumor model
Design: species or system C57B1/6J mice
Settings: subcutaneous B16F10 melanoma in mice
Procedure: Finally, in vivo anti-cancer efficacy of DOX-STB was analyzed in a melanoma tumor model made by subcutaneous injection of B16F10 melanoma tumor cells into C57B1/6J mice (FIG. 7A).

## COc1cccc2c1C(=O)c1c(O)c3c(c(O)c1C2=O)C[C@@](O)(C(=O)CO)C[C@@H]3O[C@H]1C[C@H](N)[C@H](O)[C@H](C)O1 [DOX, doxorubicin]
  tumor size in gross: tumor size decreased
